# Data: patent US20210379085A1, “HALOGENATED SALICYLANILIDES FOR TREATING THE SYMPTOMS OF DERMATITIS” (Union Therapeutics A/S, priority 2018, published 2021)
# Experiments:
# [1] = test system: skin barrier and inflammation biomarkers in lesional skin biopsies; experiment: Microarray (Affymetrix U133A Plus 2) biomarker gene expression in lesional skin biopsies (Example 3); assay type: in vivo, human
# Procedure: (§1) Patients received topical applications of a niclosamide 2% composition and vehicle once daily for 3 weeks, followed by a 1-week follow up period. Topical niclosamide 2% and vehicle was applied on two separate target lesions of atopic dermatitis (lesions of at least 3×3-cm that are at least 2 cm apart, excluding the face, scalp, genitals, hands, and feet). The application areas (5×5-cm) were randomized (1:1) to once daily application of niclosamide 2% or vehicle at 5 mg/cm^2 without occlusion 6 days per week. Patients came to the study site for all study product application for a total of 3 weeks.
# (§2) Skin barrier and inflammation biomarker levels were determined from lesional skin biopsies from application areas.
# (§3) The skin biopsy samples were analysed by immunohistochemistry (IHC), and by gene expression studies by RT-PCR using TaqMan Low Density Array (TLDA), and by microarray using Affymetrix U133A Plus 2. The immunohistochemistry (IHC) was used to analyse cell biomarkers. The methodologies as disclosed by Guttman-Yassky et al, “Major differences in inflammatory dendritic cells and their products distinguish atopic dermatitis from psoriasis”, The Journal of Allergy and Clinical Immunology, vol. 119, issue 5, pages 1210-1217, 2007, were followed except for that U133A Plus 2-set Gene Chip probe arrays was used instead of U95A-set Gene Chip probe arrays.
# Experimental design: The hybridization strategy was in concordance with experimental design principles, by for example keeping all samples from the same patient in the same date, and always include samples from every treatment arm/group.
# Quality Control and Pre-processing: Quality control of microarray chips were carried out using standard QC metrics and R package microarray Quality Control. Expression measures were obtained using GCRMA algorithm (Wu & Irizarry, 2004). Several visual and modelling techniques were used to elucidate if batch effect existed. Principal Component analysis plots were used to detect if any evident batch effect existed. If such batch effects were found, they were adjusted using Combat, an empirical Bayes method for adjusting data for batch effects that is robust to outliers in small sample sizes (Johnson, Li, & Rabinovic, 2007). The implementation of Combat by package sva was used.
# Probe-sets with at least 5% samples with expression larger than 3 (in log 2-scale) were kept for further analysis. Expression values were modelled using mixed-effect models with fixed factors Visit and Treatment Area and a random effect for each patient. Fold changes for the comparisons of interest were estimated and hypothesis testing was conducted on such comparisons using contrasts under the general framework for linear models in limma package. The inter-replicate correlation was computed by Duplicate Correlation function and the linear model was estimated by ImFit. P-values from the moderated (paired) t-test were adjusted for multiple hypotheses using the Benjamini-Hochberg procedure, which controls for FDR.
# [2] = test system: immune cell infiltrates (CD3, langerin, CD11c, FceR1) in lesional skin; experiment: Immunohistochemistry (IHC) of cell biomarkers in lesional skin biopsies (Example 3); assay type: in vivo, human; conditions: topical 2% niclosamide
# Procedure: as §1, §2, §3
# [3] = Day 22, topical administration of 2% niclosamide, p<0.05
# [4] = fold change, Day 22, vehicle-treated vs niclosamide-treated lesion, topical niclosamide 2% once daily 3 weeks, AD lesional skin
# [5] = fold change, Day 22 vs baseline, topical niclosamide 2% once daily 3 weeks, AD lesional skin
# [6] = Day 22 compared to baseline (pre-dosing at Day 1)
smiles,measurement,setting,value
"O=C(Nc1ccc([N+](=O)[O-])cc1Cl)c1cc(Cl)ccc1O [Niclosamide, niclosamide]","CXCL1 downregulation, 2% niclosamide compared to vehicle (microarray values)",[1]; [3],−2.10
same,"PI3 downregulation, 2% niclosamide compared to vehicle (microarray values)",[1]; [3],−1.87
same,"S100A9 downregulation, 2% niclosamide compared to vehicle (microarray values)",[1]; [3],−1.88
same,"S100A12 downregulation, 2% niclosamide compared to vehicle (microarray values)",[1]; [3],−2.30
same,"ACOT2 expression, Vehicle vs. Niclosamide (Microarray)",[1]; [4],−1.35
same,"ACOX2 expression, Vehicle vs. Niclosamide (Microarray)",[1]; [4],−1.40
same,"CCL2 expression, Vehicle vs. Niclosamide (Microarray)",[1]; [4],1.56
same,"CCL13 expression, Vehicle vs. Niclosamide (Microarray)",[1]; [4],1.32
same,"CCL18 expression, Vehicle vs. Niclosamide (Microarray)",[1]; [4],1.66
same,"CCL20 expression, Vehicle vs. Niclosamide (Microarray)",[1]; [4],2.00
same,"CCL23 expression, Vehicle vs. Niclosamide (Microarray)",[1]; [4],1.63
same,"CCL26 expression, Vehicle vs. Niclosamide (Microarray)",[1]; [4],1.69
same,"CCR1 expression, Vehicle vs. Niclosamide (Microarray)",[1]; [4],1.55
same,"CCR6 expression, Vehicle vs. Niclosamide (Microarray)",[1]; [4],1.31
same,"CXCL1 expression, Vehicle vs. Niclosamide (Microarray)",[1]; [4],2.10
same,"DGAT2 expression, Vehicle vs. Niclosamide (Microarray)",[1]; [4],−1.19
same,"ELOVL3 expression, Vehicle vs. Niclosamide (Microarray)",[1]; [4],−1.66
same,"FA2H expression, Vehicle vs. Niclosamide (Microarray)",[1]; [4],−1.57
same,"FAR2 expression, Vehicle vs. Niclosamide (Microarray)",[1]; [4],−1.47
same,"FAXDC2 expression, Vehicle vs. Niclosamide (Microarray)",[1]; [4],−1.29
same,"IFNGR2 expression, Vehicle vs. Niclosamide (Microarray)",[1]; [4],1.10
same,"IL1F10 expression, Vehicle vs. Niclosamide (Microarray)",[1]; [4],−1.79
same,"IL4R expression, Vehicle vs. Niclosamide (Microarray)",[1]; [4],1.29
same,"IL26 expression, Vehicle vs. Niclosamide (Microarray)",[1]; [4],1.78
same,"KRT79 expression, Vehicle vs. Niclosamide (Microarray)",[1]; [4],−2.00
same,"LCN2 expression, Vehicle vs. Niclosamide (Microarray)",[1]; [4],1.69
same,"PI 3 expression, Vehicle vs. Niclosamide (Microarray)",[1]; [4],1.87
same,"PNPLA3 expression, Vehicle vs. Niclosamide (Microarray)",[1]; [4],−1.79
same,"PPARG expression, Vehicle vs. Niclosamide (Microarray)",[1]; [4],−1.55
same,"S100A9 expression, Vehicle vs. Niclosamide (Microarray)",[1]; [4],1.88
same,"S100A12 expression, Vehicle vs. Niclosamide (Microarray)",[1]; [4],2.30
same,"SPTLC3 expression, Vehicle vs. Niclosamide (Microarray)",[1]; [4],−1.30
same,"STAT1 expression, Vehicle vs. Niclosamide (Microarray)",[1]; [4],1.13
same,"STAT3 expression, Vehicle vs. Niclosamide (Microarray)",[1]; [4],1.16
same,"TNFSF4 expression, Vehicle vs. Niclosamide (Microarray)",[1]; [4],1.35
same,"ACER1 expression, Niclosamide vs Predose (Microarray)",[1]; [5],1.94
same,"ACOX2 expression, Niclosamide vs Predose (Microarray)",[1]; [5],1.40
same,"ACSL1 expression, Niclosamide vs Predose (Microarray)",[1]; [5],1.21
same,"ANXA6 expression, Niclosamide vs Predose (Microarray)",[1]; [5],−1.24
same,"ANXA9 expression, Niclosamide vs Predose (Microarray)",[1]; [5],1.56
same,"CCL2 expression, Niclosamide vs Predose (Microarray)",[1]; [5],−1.77
same,"CCL13 expression, Niclosamide vs Predose (Microarray)",[1]; [5],−1.40
same,"CCL18 expression, Niclosamide vs Predose (Microarray)",[1]; [5],−1.70
same,"CCL19 expression, Niclosamide vs Predose (Microarray)",[1]; [5],−1.56
same,"CCL22 expression, Niclosamide vs Predose (Microarray)",[1]; [5],−1.83
same,"CCR1 expression, Niclosamide vs Predose (Microarray)",[1]; [5],−1.90
same,"CCR2 expression, Niclosamide vs Predose (Microarray)",[1]; [5],−1.37
same,"CCR5 expression, Niclosamide vs Predose (Microarray)",[1]; [5],−1.40
same,"CCR6 expression, Niclosamide vs Predose (Microarray)",[1]; [5],−1.33
same,"CCR7 expression, Niclosamide vs Predose (Microarray)",[1]; [5],−1.51
same,"CD2 expression, Niclosamide vs Predose (Microarray)",[1]; [5],−1.56
same,"CD3D expression, Niclosamide vs Predose (Microarray)",[1]; [5],−1.63
same,"CD3G expression, Niclosamide vs Predose (Microarray)",[1]; [5],−1.62
same,"CD28 expression, Niclosamide vs Predose (Microarray)",[1]; [5],−1.72
same,"CD86 expression, Niclosamide vs Predose (Microarray)",[1]; [5],−1.60
same,"CDSN expression, Niclosamide vs Predose (Microarray)",[1]; [5],1.14
same,"CERS3 expression, Niclosamide vs Predose (Microarray)",[1]; [5],1.13
same,"CLDN1 expression, Niclosamide vs Predose (Microarray)",[1]; [5],1.17
same,"CLDN23 expression, Niclosamide vs Predose (Microarray)",[1]; [5],1.42
same,"CLN8 expression, Niclosamide vs Predose (Microarray)",[1]; [5],1.15
same,"CXCL1 expression, Niclosamide vs Predose (Microarray)",[1]; [5],−2.83
same,"CXCL2 expression, Niclosamide vs Predose (Microarray)",[1]; [5],−1.81
same,"DGAT2 expression, Niclosamide vs Predose (Microarray)",[1]; [5],1.33
same,"DHCR7 expression, Niclosamide vs Predose (Microarray)",[1]; [5],1.12
same,"ELOVL3 expression, Niclosamide vs Predose (Microarray)",[1]; [5],1.81
same,"EREG expression, Niclosamide vs Predose (Microarray)",[1]; [5],1.19
same,"FA2H expression, Niclosamide vs Predose (Microarray)",[1]; [5],1.50
same,"FAR2 expression, Niclosamide vs Predose (Microarray)",[1]; [5],1.48
same,"FAXDC2 expression, Niclosamide vs Predose (Microarray)",[1]; [5],1.46
same,"FLG expression, Niclosamide vs Predose (Microarray)",[1]; [5],1.17
same,"IFNGR2 expression, Niclosamide vs Predose (Microarray)",[1]; [5],−1.13
same,"IL1F10 expression, Niclosamide vs Predose (Microarray)",[1]; [5],1.98
same,"IL2RA expression, Niclosamide vs Predose (Microarray)",[1]; [5],−1.27
same,"IL4R expression, Niclosamide vs Predose (Microarray)",[1]; [5],−1.80
same,"IL6R expression, Niclosamide vs Predose (Microarray)",[1]; [5],−1.25
same,"IL7R expression, Niclosamide vs Predose (Microarray)",[1]; [5],−1.58
same,"IL12RB2 expression, Niclosamide vs Predose (Microarray)",[1]; [5],−1.21
same,"IL24 expression, Niclosamide vs Predose (Microarray)",[1]; [5],−2.19
same,"IL37 expression, Niclosamide vs Predose (Microarray)",[1]; [5],1.69
same,"IRF1 expression, Niclosamide vs Predose (Microarray)",[1]; [5],−1.37
same,"KRT23 expression, Niclosamide vs Predose (Microarray)",[1]; [5],1.26
same,"KRT77 expression, Niclosamide vs Predose (Microarray)",[1]; [5],1.43
same,"KRT79 expression, Niclosamide vs Predose (Microarray)",[1]; [5],1.91
same,"LCN2 expression, Niclosamide vs Predose (Microarray)",[1]; [5],−1.62
same,"MMP12 expression, Niclosamide vs Predose (Microarray)",[1]; [5],−2.81
same,"PI 3 expression, Niclosamide vs Predose (Microarray)",[1]; [5],−3.13
same,"PNPLA3 expression, Niclosamide vs Predose (Microarray)",[1]; [5],1.91
same,"PPL expression, Niclosamide vs Predose (Microarray)",[1]; [5],1.06
same,"S100A7 expression, Niclosamide vs Predose (Microarray)",[1]; [5],−1.17
same,"S100A8 expression, Niclosamide vs Predose (Microarray)",[1]; [5],−1.45
same,"S100A9 expression, Niclosamide vs Predose (Microarray)",[1]; [5],−2.81
same,"S100A12 expression, Niclosamide vs Predose (Microarray)",[1]; [5],−3.62
same,"S100P expression, Niclosamide vs Predose (Microarray)",[1]; [5],−1.35
same,"SCEL expression, Niclosamide vs Predose (Microarray)",[1]; [5],1.43
same,"SERPINB1 expression, Niclosamide vs Predose (Microarray)",[1]; [5],−1.29
same,"SERPINB4 expression, Niclosamide vs Predose (Microarray)",[1]; [5],−1.54
same,"SPTLC3 expression, Niclosamide vs Predose (Microarray)",[1]; [5],1.44
same,"STAT3 expression, Niclosamide vs Predose (Microarray)",[1]; [5],−1.13
same,"TJP3 expression, Niclosamide vs Predose (Microarray)",[1]; [5],1.51
same,"TNFSF4 expression, Niclosamide vs Predose (Microarray)",[1]; [5],−1.64
same,"inflammatory cells (dendritic cells: CD11c, FceR1 in epidermis, and Langerhans cells: langerin/CD207)",[2]; [6],Significant reductions
same,total amount of T cells (CD3) in dermis and epidermis,[2]; [6],No significant change
same,CD11c Dermis expression level,"[2]; Day 22 compared to baseline, clinically correlated to TSS",significantly changed
